# Data: ChEMBL document CHEMBL1201862, “PubChem BioAssay data set” (2004)
#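 Where inhibition never reached the appropriate level, the endpoint shown equals the highest concentration tested. Otherwise, values were interpolated linearly from a five-concentration, 48-hour dose response in 96-well plates. GI50 = concentration required for 50% inhibition of growth.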 The source made the active and inactive calls. Cut-off read from the data, not from the text of the source: active = GI50 up to about 1.1 µM and inactive = higher.
# How the values were obtained:
# Assay in all cases: NCI tumour cell line growth inhibition, 48 h
# [1] = test system: 786-0
# [2] = test system: A549
# [3] = test system: ACHN
# [4] = test system: CAKI-1
# [5] = test system: COLO 205
# [6] = test system: DLD-1
# [7] = test system: DMS-114
# [8] = test system: DMS-273
# [9] = test system: EKVX
# [10] = test system: HCC 2998
# [11] = test system: HCT-116
# [12] = test system: HL-60
# [13] = test system: HOP-62
# [14] = test system: HT-29
# [15] = test system: KM-20L2
# [16] = test system: KM12
# [17] = test system: LOX IMVI
# [18] = test system: LXFL 529
# [19] = test system: M14
# [20] = test system: M19-MEL
# [21] = test system: Malme-3M
# [22] = test system: NCI-H226
# [23] = test system: NCI-H23
# [24] = test system: NCI-H460
# [25] = test system: NCI-H522
# [26] = test system: OVCAR-3
# [27] = test system: OVCAR-4
# [28] = test system: OVCAR-5
# [29] = test system: OVCAR-8
# [30] = test system: RXF 393
# [31] = test system: SF-268
# [32] = test system: SF-295
# [33] = test system: SF-539
# [34] = test system: SK-MEL-28
# [35] = test system: SK-MEL-2
# [36] = test system: SN12C
# [37] = test system: SNB-19
# [38] = test system: SNB-75
# [39] = test system: SNB-78
# [40] = test system: SW-620
# [41] = test system: TK-10
# [42] = test system: U-251
# [43] = test system: UACC-257
# [44] = test system: UO-31
# [45] = test system: A498
# [46] = test system: BT-549
# [47] = test system: CCRF-CEM
# [48] = test system: DU-145
# [49] = test system: HCT-15
# [50] = test system: HOP-92
# [51] = test system: Hs-578T
# [52] = test system: IGROV-1
# [53] = test system: K562
# [54] = test system: MCF7
# [55] = test system: MDA-MB-231
# [56] = test system: MDA-MB-435
# [57] = test system: MDA-N
# [58] = test system: MOLT-4
# [59] = test system: NCI/ADR-RES
# [60] = test system: PC-3
# [61] = test system: RPMI-8226
# [62] = test system: SK-MEL-5
# [63] = test system: SK-OV-3
# [64] = test system: SR
# [65] = test system: T47D
# [66] = test system: UACC-62
structure (smiles),measurement,setting,value
CCCC(C)C[C@@H](C)CC(C)/C=C(\C)c1oc(=O)c(C)c(O)c1C.CC[C@@H](C)C[C@@H](C)C[C@@H](C)/C=C(\C)c1oc(=O)c(C)c(O)c1C (stereo partly specified),GI50,[1],14.5 µM (inactive)
same,GI50,[2],17.3 µM (inactive)
same,GI50,[3],5.57 µM (inactive)
same,GI50,[4],13.4 µM (inactive)
same,GI50,[5],28.2 µM (inactive)
same,GI50,[6],13.5 µM (inactive)
same,GI50,[7],16.8 µM (inactive)
same,GI50,[8],18.5 µM (inactive)
same,GI50,[9],15.2 µM (inactive)
same,GI50,[10],12.9 µM (inactive)
same,GI50,[11],17.6 µM (inactive)
same,GI50,[12],13.6 µM (inactive)
same,GI50,[13],18.7 µM (inactive)
same,GI50,[14],13.9 µM (inactive)
same,GI50,[15],12.6 µM (inactive)
same,GI50,[16],20.4 µM (inactive)
same,GI50,[17],17.1 µM (inactive)
same,GI50,[18],13.2 µM (inactive)
same,GI50,[19],15.5 µM (inactive)
same,GI50,[20],10 µM (inactive)
same,GI50,[21],3.56 µM (inactive)
same,GI50,[22],15.5 µM (inactive)
same,GI50,[23],10 µM (inactive)
same,GI50,[24],9.29 µM (inactive)
same,GI50,[25],14.8 µM (inactive)
same,GI50,[26],6.78 µM (inactive)
same,GI50,[27],10.4 µM (inactive)
same,GI50,[28],6.19 µM (inactive)
same,GI50,[29],20.3 µM (inactive)
same,GI50,[30],13.4 µM (inactive)
same,GI50,[31],14.1 µM (inactive)
same,GI50,[32],12.8 µM (inactive)
same,GI50,[33],15.4 µM (inactive)
same,GI50,[34],14.8 µM (inactive)
same,GI50,[35],9.48 µM (inactive)
same,GI50,[36],15.3 µM (inactive)
same,GI50,[37],14.2 µM (inactive)
same,GI50,[38],13.6 µM (inactive)
same,GI50,[39],20.9 µM (inactive)
same,GI50,[40],17.7 µM (inactive)
same,GI50,[41],19.5 µM (inactive)
same,GI50,[42],14.5 µM (inactive)
same,GI50,[43],14.7 µM (inactive)
same,GI50,[44],13.6 µM (inactive)
C[C@H]1CC(=O)[C@@]2(O)C#C/C=C\C#C[C@@H]3Nc4c(cc(O)c5c4C(=O)c4ccccc4C5=O)[C@]24O[C@]314,GI50,[1],0.0128 µM (active)
same,GI50,[45],0.0586 µM (active)
same,GI50,[2],0.00543 µM (active)
same,GI50,[3],< 0.001 µM (active)
same,GI50,[46],0.0194 µM (active)
same,GI50,[4],< 0.001 µM (active)
same,GI50,[47],0.00106 µM (active)
same,GI50,[5],0.0568 µM (active)
same,GI50,[48],0.00189 µM (active)
same,GI50,[9],0.228 µM (active)
same,GI50,[10],0.00647 µM (active)
same,GI50,[11],0.00982 µM (active)
same,GI50,[49],0.0248 µM
same,GI50,[12],< 0.001 µM (active)
same,GI50,[13],0.00159 µM (active)
same,GI50,[50],0.0157 µM (active)
same,GI50,[14],0.0619 µM (active)
same,GI50,[51],0.811 µM (active)
same,GI50,[52],0.16 µM (active)
same,GI50,[53],0.0118 µM (active)
same,GI50,[16],0.0927 µM (active)
same,GI50,[17],0.0175 µM (active)
same,GI50,[19],0.00916 µM (active)
same,GI50,[54],< 0.001 µM (active)
same,GI50,[55],0.0873 µM (active)
same,GI50,[56],0.0509 µM (active)
same,GI50,[57],0.0309 µM (active)
same,GI50,[58],< 0.001 µM (active)
same,GI50,[21],0.01 µM (active)
same,GI50,[22],0.00356 µM (active)
same,GI50,[23],0.00461 µM (active)
same,GI50,[24],< 0.001 µM (active)
same,GI50,[25],0.0504 µM (active)
same,GI50,[59],0.00914 µM (active)
same,GI50,[26],0.136 µM (active)
same,GI50,[27],0.271 µM (active)
same,GI50,[28],0.0685 µM (active)
same,GI50,[29],0.0158 µM (active)
same,GI50,[60],0.259 µM (active)
same,GI50,[61],0.00356 µM (active)
same,GI50,[30],0.0114 µM (active)
same,GI50,[31],0.00313 µM (active)
same,GI50,[32],0.0161 µM (active)
same,GI50,[33],0.00316 µM (active)
same,GI50,[34],0.0338 µM (active)
same,GI50,[35],0.478 µM (active)
same,GI50,[62],0.00266 µM (active)
same,GI50,[63],0.0171 µM (active)
same,GI50,[36],0.00296 µM (active)
same,GI50,[37],0.0199 µM (active)
same,GI50,[38],0.0316 µM (active)
same,GI50,[64],0.00256 µM (active)
same,GI50,[40],0.0153 µM (active)
same,GI50,[65],0.0305 µM (active)
same,GI50,[41],0.0574 µM (active)
same,GI50,[42],0.00701 µM (active)
same,GI50,[43],0.00231 µM (active)
same,GI50,[66],0.00764 µM (active)
same,GI50,[44],< 0.001 µM (active)
FC(F)(F)c1cccc(C2SCc3nc4ccccc4n32)c1 (stereo unspecified),GI50,[1],61.5 µM (inactive)
same,GI50,[2],56.1 µM (inactive)
same,GI50,[3],64 µM (inactive)
same,GI50,[4],55.2 µM (inactive)
same,GI50,[47],32.8 µM (inactive)
same,GI50,[5],> 100 µM (inactive)
same,GI50,[6],54.2 µM (inactive)
same,GI50,[7],18.5 µM (inactive)
same,GI50,[8],41.9 µM (inactive)
same,GI50,[9],73.3 µM (inactive)
same,GI50,[10],> 100 µM (inactive)
same,GI50,[11],38.9 µM (inactive)
same,GI50,[12],5.75 µM (inactive)
same,GI50,[50],2.41 µM (inactive)
same,GI50,[14],> 100 µM (inactive)
same,GI50,[52],33.7 µM (inactive)
same,GI50,[53],8.61 µM (inactive)
same,GI50,[16],68.4 µM (inactive)
same,GI50,[18],27.8 µM (inactive)
same,GI50,[20],> 100 µM (inactive)
same,GI50,[58],41.4 µM (inactive)
same,GI50,[21],> 100 µM (inactive)
same,GI50,[22],> 100 µM (inactive)
same,GI50,[23],9.79 µM (inactive)
same,GI50,[25],17.6 µM (inactive)
same,GI50,[26],56 µM (inactive)
same,GI50,[28],6.32 µM (inactive)
same,GI50,[29],59.3 µM (inactive)
same,GI50,[61],12.9 µM (inactive)
same,GI50,[30],33.1 µM (inactive)
same,GI50,[31],90.6 µM (inactive)
same,GI50,[32],33.9 µM (inactive)
same,GI50,[33],26.6 µM (inactive)
same,GI50,[34],65.9 µM (inactive)
same,GI50,[35],> 100 µM (inactive)
same,GI50,[62],11 µM (inactive)
same,GI50,[63],26.8 µM (inactive)
same,GI50,[36],> 100 µM (inactive)
same,GI50,[37],51.3 µM (inactive)
same,GI50,[38],29.8 µM (inactive)
same,GI50,[39],> 100 µM (inactive)
same,GI50,[64],44 µM (inactive)
same,GI50,[40],> 100 µM (inactive)
same,GI50,[41],72.3 µM (inactive)
same,GI50,[42],62.7 µM (inactive)
same,GI50,[43],4.54 µM (inactive)
same,GI50,[66],> 100 µM (inactive)
same,GI50,[44],> 100 µM (inactive)
